Laboratory results taken from patent US20210284618A1, “FURANOCHALCONES AS INHIBITORS OF CYP1A1, CYP1A2 AND CYP1B1 FOR CANCER CHEMOPREVENTION” (Council of Scientific & Industrial Research, priority 2016, published 2021).
“And” between values parts separate entries of the source, which are not always exact repeats. Equal entries are not always repeated.

Assays:
CYP1B1 = target: T1, CYP1B1 (Homo sapiens, UniProt Q16678); assay: In-vitro CYP450 1B1 enzyme inhibition in Saccharosomes; type: biochemical; set-up: purchased CYP Design Ltd; host or cells: yeast microsomes (Saccharosomes)
T1 sequence (Q16678 1-543): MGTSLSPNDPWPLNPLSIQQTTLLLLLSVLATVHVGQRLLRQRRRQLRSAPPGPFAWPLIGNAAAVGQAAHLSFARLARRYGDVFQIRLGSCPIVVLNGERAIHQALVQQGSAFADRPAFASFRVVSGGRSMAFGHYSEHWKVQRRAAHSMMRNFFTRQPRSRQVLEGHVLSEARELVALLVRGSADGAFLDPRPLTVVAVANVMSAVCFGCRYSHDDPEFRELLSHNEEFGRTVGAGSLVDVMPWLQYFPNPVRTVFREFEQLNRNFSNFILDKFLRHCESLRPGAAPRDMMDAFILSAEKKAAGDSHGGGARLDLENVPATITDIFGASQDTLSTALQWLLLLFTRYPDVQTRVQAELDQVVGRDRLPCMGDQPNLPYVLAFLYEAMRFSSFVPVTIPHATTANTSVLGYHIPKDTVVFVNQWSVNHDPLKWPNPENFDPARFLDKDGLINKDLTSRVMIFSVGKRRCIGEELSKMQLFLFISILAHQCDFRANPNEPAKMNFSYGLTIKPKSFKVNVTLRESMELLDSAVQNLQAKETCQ
Procedure: Example 24. In-vitro CYP450 1B1 enzyme inhibition in Saccharosomes™: Regenerating system consists of: 5 μl Solution A (183 mg of NADP++183 mg of glucose-6-phosphate+654 μl of 1.0 M magnesium chloride solution+9.15 ml of sterile ultra-pure water)+1 μl Solution B (250 Units of glucose-6-phosphate dehydrogenase+6.25 ml of 5 mM sodium citrate; mixed in a tube and made up to 10 ml with sterile ultra-pure water)+39 μl 0.2 M Kpi (0.6 ml of 1.0M K2HPO4+9.4 ml of 1.0 M KH2PO4 were mixed and made up to 50 ml with sterile ultra-pure water)+5 μl potential inhibitory compound.
(§1) Example 25. IC50 determination for best compound against CYP1A1, CYP1B1 and other CYPs in Saccharosomes. Compounds were serially diluted to six different concentrations with 10% DMSO in a Sero-Well white microplate. The experiment was performed in a similar way as described above in examples 23 and 24.

CYP2C9 = target: T2, CYP2C9 (Homo sapiens, UniProt P11712); assay: CYP2C9 inhibition in Saccharosomes; type: biochemical; conditions: Saccharosomes containing CYP2C9
T2 construct: host or cells: yeast microsomes (Saccharosomes)

CYP2C18 = target: T3, CYP2C18 (Homo sapiens, UniProt P33260); assay: CYP2C18 inhibition in Saccharosomes; type: biochemical; conditions: Saccharosomes containing CYP2C18
T3 construct: host or cells: yeast microsomes (Saccharosomes)
T3 sequence (P33260 26-490): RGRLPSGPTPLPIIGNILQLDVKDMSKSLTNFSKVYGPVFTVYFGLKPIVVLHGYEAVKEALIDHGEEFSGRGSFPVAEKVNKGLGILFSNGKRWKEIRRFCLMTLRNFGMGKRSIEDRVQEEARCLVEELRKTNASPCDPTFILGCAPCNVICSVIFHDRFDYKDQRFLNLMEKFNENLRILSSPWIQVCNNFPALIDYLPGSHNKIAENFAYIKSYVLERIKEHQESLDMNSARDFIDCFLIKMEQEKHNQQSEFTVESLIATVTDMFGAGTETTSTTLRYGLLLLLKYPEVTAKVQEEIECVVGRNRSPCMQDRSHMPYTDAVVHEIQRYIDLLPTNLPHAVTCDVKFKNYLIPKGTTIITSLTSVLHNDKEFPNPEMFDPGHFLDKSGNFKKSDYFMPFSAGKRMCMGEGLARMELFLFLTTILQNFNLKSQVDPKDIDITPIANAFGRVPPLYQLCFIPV

CYP2C19 = target: T4, CYP2C19 (Homo sapiens, UniProt P33261); assay: CYP2C19 inhibition in Saccharosomes; type: biochemical; conditions: Saccharosomes containing CYP2C19
T4 construct: host or cells: yeast microsomes (Saccharosomes)

CYP1A1 = target: T5, CYP1A1 (Homo sapiens, UniProt P04798); assay: In-vitro CYP450 1A1 enzyme inhibition in Saccharosomes; type: biochemical
T5 construct: host or cells: yeast microsomes (Saccharosomes)
T5 sequence (P04798 1-512): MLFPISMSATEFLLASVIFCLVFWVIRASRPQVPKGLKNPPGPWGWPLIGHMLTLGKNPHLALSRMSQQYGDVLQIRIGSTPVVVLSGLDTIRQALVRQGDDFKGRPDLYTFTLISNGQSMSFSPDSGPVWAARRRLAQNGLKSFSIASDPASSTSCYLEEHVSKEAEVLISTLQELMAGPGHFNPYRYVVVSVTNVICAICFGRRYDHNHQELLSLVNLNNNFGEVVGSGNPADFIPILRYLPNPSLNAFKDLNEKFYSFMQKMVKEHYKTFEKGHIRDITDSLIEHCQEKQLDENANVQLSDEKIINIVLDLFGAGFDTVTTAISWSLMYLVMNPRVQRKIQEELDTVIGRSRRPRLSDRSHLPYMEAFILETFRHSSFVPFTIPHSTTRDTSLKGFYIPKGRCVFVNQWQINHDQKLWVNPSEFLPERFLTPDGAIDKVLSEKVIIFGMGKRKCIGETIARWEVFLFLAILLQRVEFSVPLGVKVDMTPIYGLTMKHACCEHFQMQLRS
Procedure: Example 23. In-vitro CYP450 1A1 enzyme inhibition in Saccharosomes™: The screening method utilizes 384-well microplates to rapidly ascertain relative percentage inhibition of CYP1A1 by a library of compounds. Each reaction was performed in black, clear-bottomed 384-well microplates. A reaction volume of 50 μl comprised of 0.5 pmol of the cytochrome P450 CYP1A1 (Saccharosomes), 5 μM of ethoxyresorufin substrate (which contributes 0.05% DMSO to the well), 10 μM of potential inhibitor test article (which contributes 0.5% DMSO to the well), A P450 reductase NADPH regenerating system (1.3 mM NADP+, 3.3 mM glucose-6-0.02 units phosphate and glucose-6-Phosphate dehydrogenase), potassium phosphate buffer (final well concentration 100 mM, pH 7.4) and water. Very small quantities of magnesium chloride and sodium citrate are added to the NADPH regenerating system, in line with standard published protocols. The potential inhibitor (test article) was pre-incubated with CYP1A1 of at least 20 minutes at 30° C. After this period, the remainder of the reagents required in the assay was added to initiate the process. The reaction mixture was incubated for another 20 minutes at 30° C. The reaction was stopped by adding an 80% acetonitrile, 20% 0.5 M Tris solution. The reactions were monitored using the Biotek Synergy HT plate reader by measuring the endpoint reaction at Excitation 530/(25 bandwidth) & Emission 590/(20 bandwidth) using a gain/sensitivity setting of 60. The mean of the quadruplicates of the negative control (solvent inactivated CYP1A1) was deducted from the mean of potential inhibitor (test article) samples. The percentage was then derived relative to the mean of the wells without inhibitor.
as §1

T2 sequence (P11712 whole entry): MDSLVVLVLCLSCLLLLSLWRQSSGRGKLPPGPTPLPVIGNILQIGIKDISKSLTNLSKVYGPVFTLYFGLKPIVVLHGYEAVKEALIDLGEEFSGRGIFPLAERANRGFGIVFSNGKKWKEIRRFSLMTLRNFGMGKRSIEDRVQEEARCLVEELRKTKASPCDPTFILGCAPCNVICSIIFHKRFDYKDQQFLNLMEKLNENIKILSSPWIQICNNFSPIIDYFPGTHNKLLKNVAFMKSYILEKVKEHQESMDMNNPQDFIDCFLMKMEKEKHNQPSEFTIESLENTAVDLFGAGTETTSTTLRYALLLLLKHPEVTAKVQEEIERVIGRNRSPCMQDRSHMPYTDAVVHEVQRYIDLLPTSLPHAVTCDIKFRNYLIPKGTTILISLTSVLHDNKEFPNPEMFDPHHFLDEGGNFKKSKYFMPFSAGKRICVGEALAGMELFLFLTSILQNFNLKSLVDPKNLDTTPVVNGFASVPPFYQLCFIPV
T4 sequence (P33261 whole entry): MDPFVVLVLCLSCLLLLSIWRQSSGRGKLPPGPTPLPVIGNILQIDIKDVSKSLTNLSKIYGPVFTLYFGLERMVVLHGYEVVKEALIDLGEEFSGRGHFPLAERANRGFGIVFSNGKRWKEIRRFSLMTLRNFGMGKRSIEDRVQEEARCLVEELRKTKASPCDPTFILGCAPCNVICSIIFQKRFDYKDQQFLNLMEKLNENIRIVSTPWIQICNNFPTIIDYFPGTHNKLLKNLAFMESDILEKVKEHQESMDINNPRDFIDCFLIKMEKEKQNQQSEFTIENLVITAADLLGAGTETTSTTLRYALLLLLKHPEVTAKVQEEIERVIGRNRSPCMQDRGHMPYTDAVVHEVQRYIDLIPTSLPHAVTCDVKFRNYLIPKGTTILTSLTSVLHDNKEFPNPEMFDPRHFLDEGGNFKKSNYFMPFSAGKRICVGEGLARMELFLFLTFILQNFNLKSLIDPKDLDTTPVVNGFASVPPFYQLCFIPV

For `COc1c(C(=O)/C=C/c2cccnc2)c(O)c(OC)c2occc12` [Compound 8, 3-(4,7-dimethoxy-6-hydroxybenzofuran-5-yl)-1-(pyridin-3-yl)-3-oxopropene], the IC50 (CYP1B1) was 660 nM, the “% inhibition of CYP1B1 in Saccharosomes at 10 μM” value (CYP1B1; 10 μM test compound, 7-ethoxyresorufin, 10 µM) was 80.3% and the inhibition at 10 μM (CYP1B1; human, Saccharosomes (yeast-derived) with recombinant CYP1B1, probe 7-ethoxyresorufin (5 μl of 0.1 mM), % inhibition of CYP1B1 in Saccharosomes at 10 μM, 10 μM test compound, 7-ethoxyresorufin) was > 80%. It also gave an inhibition at 20 µM (CYP2C9) of 62%, an inhibition at 20 µM (CYP2C18) of 63% and an inhibition at 20 µM (CYP2C19) of 7%. The melting point was 112 to 114 °C, the IC50 (CYP1A1) was 342 nM and the “% inhibition of CYP1A1 in Saccharosomes at 10 μM” value (CYP1A1; 10 μM test compound, 5 μM ethoxyresorufin) was 97% and 97.2%. The inhibition at 20 min, 10 μM (CYP1A1; human, Saccharosomes containing CYP1A1, pH 7.4, probe ethoxyresorufin (5 μM), % inhibition of CYP1A1 in Saccharosomes at 10 μM, 10 μM test compound, 5 μM ethoxyresorufin) was > 80%.
